The text below walks through data of US9462807B2, “Difenoconazole sterepospmeric composition with reduced phytotoxicity” (Syngenta Participations AG, priority 2013, dated 2016).

Molecules are shown by their SMILES.

The test system of this series is Wheat (variety "Riband"). In words: Phytotoxicity on pot-grown wheat after track-sprayer application. The series is classed as in vivo. Particulars: versus 2S,4R (Ia), 2R,4R (Ic) and 2S,4S (Id). Here is the method:
Wheat seeds (variety “Riband”) were sown in 6.5 cm diameter pots with typically 6 seeds per pot. The growing media comprised 66.5% TKS1 peat soil, 30% sugar beet soil and 3.5% sand. The seeds were covered with a fine layer of soil and the pots were watered. Within a day of sowing the pots were treated with 5 mL of a solution of the growth regulator trinexapac-ethyl (Moddus 250 EC™ from Syngenta) diluted 1 part in 1000 parts water. The pots were kept in a controlled environment room at 19° C. constant temperature, 60% relative humidity and a 14 hour day length until test treatment at which time the plants were around 3 weeks old. Plant density was reduced to typically 4 plants per pot prior to application of the test treatments.
The difenoconazole formulations were mixed with water and ultrasonically agitated in order to achieve a homogeneous emulsion. Spray solutions were then made with 9 parts water to 1 part isopropanol by volume. The test treatments were applied using a track-sprayer with a single flat-fan nozzle at a height of 60 cm and calibrated to apply the equivalent of 200 litres per hectare.
The symptoms of phytotoxicity on wheat caused by difenoconazole included chlorosis and/or necrosis.
Test wheat plants were grown and the formulations applied as for Example 3. […]

Regarding `C[C@H]1CO[C@](Cn2cncn2)(c2ccc(Oc3ccc(Cl)cc3)cc2Cl)O1` [Ib], the “Phytotoxic damage to wheat compared with the other stereoisomers” value is “less phytotoxic damage”.
